Data as given in ChEMBL document CHEMBL1629662, “Antimicrobial activity of prulifloxacin tested against a worldwide collection of gastroenteritis-producing pathogens, including those causing traveler's diarrhea” (2009).
Values after ≈ are worked out from the molar mass of the structure shown.

Tests used:
[1] = test system: Campylobacter jejuni; experiment: Antibacterial activity against Campylobacter jejuni by broth microdilution method; type: functional
[2] = test system: Campylobacter jejuni; experiment: Antibacterial activity against Campylobacter jejuni assessed as percent resistant isolates by broth microdilution method; type: functional; settings: pooled result: one value given for 2 cell lines, strains, targets or settings
[3] = test system: Campylobacter jejuni; experiment: Antibacterial activity against Campylobacter jejuni assessed as percent susceptible isolates by broth microdilution method; type: functional; settings: pooled result: one value given for 2 cell lines, strains, targets or settings
[4] = test system: Campylobacter coli; experiment: Antibacterial activity against Campylobacter coli by broth microdilution method; type: functional
[5] = test system: Aeromonas veronii; experiment: Antibacterial activity against Aeromonas veronii by broth microdilution method; type: functional
[6] = test system: Shigella sonnei; experiment: Antibacterial activity against Shigella sonnei by broth microdilution method; type: functional
[7] = test system: Yersinia pseudotuberculosis; experiment: Antibacterial activity against Yersinia pseudotuberculosis by broth microdilution method; type: functional
[8] = test system: Aeromonas hydrophila; experiment: Antibacterial activity against Aeromonas hydrophila by broth microdilution method; type: functional
[9] = test system: Aeromonas caviae; experiment: Antibacterial activity against Aeromonas caviae by broth microdilution method; type: functional
[10] = test system: Vibrio sp.; experiment: Antibacterial activity against Vibrio sp. by broth microdilution method; type: functional
[11] = test system: Aeromonas sobria; experiment: Antibacterial activity against Aeromonas sobria by broth microdilution method; type: functional
[12] = test system: Vibrio cholerae; experiment: Antibacterial activity against Vibrio cholerae by broth microdilution method; type: functional
[13] = test system: Salmonella enteritidis; experiment: Antibacterial activity against Salmonella enterica serovar Enteritidis by broth microdilution method; type: functional, Salmonella enterica subsp. enterica serovar Enteritidis
[14] = test system: Escherichia coli; experiment: Antibacterial activity against Escherichia coli by broth microdilution method; type: functional
[15] = test system: Plesiomonas shigelloides; experiment: Antibacterial activity against Plesiomonas shigelloides by broth microdilution method; type: functional
[16] = test system: Salmonella typhimurium; experiment: Antibacterial activity against Salmonella enterica serovar Typhimurium by broth microdilution method; type: functional, Salmonella enterica subsp. enterica serovar Typhimurium
[17] = test system: Vibrio parahaemolyticus; experiment: Antibacterial activity against Vibrio parahaemolyticus by broth microdilution method; type: functional
[18] = test system: Shigella boydii; experiment: Antibacterial activity against Shigella boydii by broth microdilution method; type: functional
[19] = test system: Yersinia enterocolitica; experiment: Antibacterial activity against Yersinia enterocolitica by broth microdilution method; type: functional
[20] = test system: Vibrio alginolyticus; experiment: Antibacterial activity against Vibrio alginolyticus by broth microdilution method; type: functional
[21] = test system: Vibrio vulnificus; experiment: Antibacterial activity against Vibrio vulnificus by broth microdilution method; type: functional
[22] = test system: Shigella dysenteriae; experiment: Antibacterial activity against Shigella dysenteriae by broth microdilution method; type: functional
[23] = test system: Shigella flexneri; experiment: Antibacterial activity against Shigella flexneri by broth microdilution method; type: functional
[24] = test system: Vibrio fluvialis; experiment: Antibacterial activity against Vibrio fluvialis by broth microdilution method; type: functional

## CC[C@H]1OC(=O)[C@H](C)[C@@H](O[C@H]2C[C@@](C)(OC)[C@@H](O)[C@H](C)O2)[C@H](C)[C@@H](O[C@@H]2O[C@H](C)C[C@H](N(C)C)[C@H]2O)[C@](C)(O)C[C@@H](C)C(=O)[C@H](C)[C@@H](O)[C@]1(C)O [ERYTHROMYCIN]
[1]
  MIC50: 0.25 µg/mL (≈ 0.341 µM)
  MIC90: 0.5 µg/mL (≈ 0.681 µM)
[2]
  Activity: 0%
[3]
  Activity: 100%
[4]
  MIC50: 0.25 µg/mL (≈ 0.341 µM)
  MIC90: 0.5 µg/mL (≈ 0.681 µM)

## CO[C@H]1/C=C/O[C@@]2(C)Oc3c(C)c(O)c4c(O)c(c5c(nc6cc(C)ccn65)c4c3C2=O)NC(=O)/C(C)=C\C=C\[C@H](C)[C@H](O)[C@@H](C)[C@@H](O)[C@@H](C)[C@H](OC(C)=O)[C@@H]1C [RIFAXIMIN]
[5]
  MIC50: 4 µg/mL (≈ 5.09 µM)
  MIC90: 8 µg/mL (≈ 10.2 µM)
[6]
  MIC50: 8 µg/mL (≈ 10.2 µM)
  MIC90: 16 µg/mL (≈ 20.4 µM)
[7]
  MIC50: 4 µg/mL (≈ 5.09 µM)
  MIC90: 8 µg/mL (≈ 10.2 µM)
[8]
  MIC50: 4 µg/mL (≈ 5.09 µM)
  MIC90: 8 µg/mL (≈ 10.2 µM)
[9]
  MIC50: 4 µg/mL (≈ 5.09 µM)
  MIC90: 8 µg/mL (≈ 10.2 µM)
[10]
  MIC50: 0.5 µg/mL (≈ 0.636 µM)
  MIC90: 1 µg/mL (≈ 1.27 µM)
[1]
  MIC50: 32 µg/mL (≈ 40.7 µM)
  MIC90: 32 µg/mL (≈ 40.7 µM)
[11]
  MIC50: 4 µg/mL (≈ 5.09 µM)
  MIC90: 8 µg/mL (≈ 10.2 µM)
[12]
  MIC50: 0.5 µg/mL (≈ 0.636 µM)
  MIC90: 1 µg/mL (≈ 1.27 µM)
[13]
  MIC50: 8 µg/mL (≈ 10.2 µM)
  MIC90: 16 µg/mL (≈ 20.4 µM)
[14]
  MIC50: 8 µg/mL (≈ 10.2 µM)
  MIC90: 16 µg/mL (≈ 20.4 µM)
[15]
  MIC: 8 µg/mL (≈ 10.2 µM)
  MIC50: 8 µg/mL (≈ 10.2 µM)
[16]
  MIC50: 8 µg/mL (≈ 10.2 µM)
  MIC90: 16 µg/mL (≈ 20.4 µM)
[17]
  MIC50: 0.5 µg/mL (≈ 0.636 µM)
  MIC90: 1 µg/mL (≈ 1.27 µM)
[18]
  MIC50: 8 µg/mL (≈ 10.2 µM)
  MIC90: 16 µg/mL (≈ 20.4 µM)
[19]
  MIC50: 4 µg/mL (≈ 5.09 µM)
  MIC90: 8 µg/mL (≈ 10.2 µM)
[20]
  MIC50: 0.5 µg/mL (≈ 0.636 µM)
  MIC90: 1 µg/mL (≈ 1.27 µM)
[21]
  MIC50: 0.5 µg/mL (≈ 0.636 µM)
  MIC90: 1 µg/mL (≈ 1.27 µM)
[22]
  MIC50: 8 µg/mL (≈ 10.2 µM)
  MIC90: 16 µg/mL (≈ 20.4 µM)
[4]
  MIC50: 32 µg/mL (≈ 40.7 µM)
  MIC90: 32 µg/mL (≈ 40.7 µM)
[23]
  MIC50: 8 µg/mL (≈ 10.2 µM)
  MIC90: 16 µg/mL (≈ 20.4 µM)
[24]
  MIC50: 0.5 µg/mL (≈ 0.636 µM)
  MIC90: 1 µg/mL (≈ 1.27 µM)
